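Step 1: Grow cells in 96-well plates. Step 2: Expose to compound for 48 hours at 5 concentrations. Step 3: Interpolate endpoints linearly; if unreached, use highest concentration. At the GI50, growth is halved. TGI denotes the concentration required for complete inhibition of growth.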
Key:
Experiment in all cases: NCI tumour cell line growth inhibition, 48 h
HCT-116 colon = system: HCT-116 colon
HL-60(TB) leukemia = system: HL-60(TB) leukemia
LOX IMVI melanoma = system: LOX IMVI melanoma
M14 melanoma = system: M14 melanoma
MCF7 breast = system: MCF7 breast
MDA-MB-231 breast = system: MDA-MB-231 breast
NCI-H226 lung = system: NCI-H226 lung
RPMI-8226 leukemia = system: RPMI-8226 leukemia
SNB-19 CNS = system: SNB-19 CNS
NCI-H460 lung = system: NCI-H460 lung

SMILES | TGI (HCT-116 colon) | TGI (HL-60(TB) leukemia) | TGI (LOX IMVI melanoma) | TGI (M14 melanoma) | TGI (MCF7 breast) | TGI (MDA-MB-231 breast) | TGI (NCI-H226 lung) | TGI (RPMI-8226 leukemia) | TGI (SNB-19 CNS) | TGI (NCI-H460 lung) | GI50 (HL-60(TB) leukemia) | GI50 (LOX IMVI melanoma) | GI50 (MCF7 breast) | GI50 (MDA-MB-231 breast) | GI50 (NCI-H226 lung) | GI50 (NCI-H460 lung) | GI50 (RPMI-8226 leukemia) | GI50 (SNB-19 CNS) | GI50 (M14 melanoma)
O=P(OCc1ccccc1)(OCc1ccccc1)C(O)/C=C/c1ccccc1 (centres undefined) | 39.8 µM | 44.3 µM | 31.5 µM | 37 µM | > 100 µM | 56.4 µM | 78.3 µM | 82.8 µM | 71.3 µM |  |  |  |  |  |  |  |  |  | 
COc1ccc2c(c1)-c1c(c3cc(OC)ccc3n1CCN(C)C)CC2 | 24.4 µM |  |  | 28.5 µM | 28.9 µM | 28.2 µM | 30 µM | 31.2 µM |  | 25.9 µM |  |  |  |  |  |  |  |  | 
CC(=O)OC1CC2(O)C(CCC3(C)C(c4ccc(=O)oc4)CCC32O)C2(C)C1=CC(O)C1OC12 (centres undefined) | 0.216 µM | 1.28 µM | 1.02 µM |  | 0.402 µM |  | 0.643 µM | 0.4 µM | 0.461 µM | 0.0466 µM |  |  |  |  |  |  |  |  | 
C[C@H](c1ccccc1)N1C(=O)[C@@H](OCc2ccccc2)[C@H]1[C@H](COC(=O)COCc1ccccc1)OCc1ccccc1 | > 100 µM |  | > 100 µM | > 100 µM | > 100 µM | > 100 µM | 89.4 µM | > 100 µM | > 100 µM |  |  |  |  |  |  |  |  |  | 
COC(=O)C1=C(C(=O)OC)SC(=C2SC3=C(SC(=C4SCCS4)S3)S2)S1 | > 100 µM | > 100 µM | > 100 µM | > 100 µM | > 100 µM | > 100 µM | > 100 µM | > 100 µM | > 100 µM |  |  |  |  |  |  |  |  |  | 
CC(=O)N(C)c1ccc(Nc2ccnc3ccc4nn(C)nc4c23)cc1 | 53.1 µM | 38.8 µM | 30.6 µM | > 100 µM | 46.6 µM |  | 34.3 µM | 46.9 µM | > 100 µM |  |  |  |  |  |  |  |  |  | 
COc1cc2c3cc1Oc1c(OC)c(OC)cc4c1C(Cc1ccc(O)c(c1)Oc1ccc(cc1)CC3N(C)CC2)CN(C)C4 (centres undefined) | 19 µM | 6.11 µM |  | 15 µM | 34.2 µM | 28.1 µM | 68.9 µM | 47.6 µM | 84.5 µM | 33.7 µM |  |  |  |  |  |  |  |  | 
CNC(=S)NNc1ncnc2c1c(-c1ccc(Cl)cc1)cn2-c1ccc(C)cc1 | 17.1 µM | > 100 µM | 33.5 µM | 26.5 µM |  | 21.7 µM | 57.5 µM | 75.9 µM | 36.6 µM | 17.8 µM |  |  |  |  |  |  |  |  | 
Nc1c(S(N)(=O)=O)cc(S(N)(=O)=O)cc1S(N)(=O)=O | > 100 µM |  | > 100 µM | > 100 µM | > 100 µM | > 100 µM | > 100 µM | > 100 µM | > 100 µM | > 100 µM |  |  |  |  |  |  |  |  | 
CCCO/N=[N+](\[O-])N(CC)CC | > 100 µM | > 100 µM | > 100 µM | > 100 µM |  |  | > 100 µM |  | > 100 µM | > 100 µM |  |  |  |  |  |  |  |  | 
Cn1c2c(c3ccccc31)CCN1C(=O)C34CCCC3CC21S4 (centres undefined) | > 100 µM | > 100 µM | > 100 µM | > 100 µM | > 100 µM | > 100 µM | > 100 µM | > 100 µM | > 100 µM |  |  |  |  |  |  |  |  |  | 
Oc1c(OCc2nnc(CCCCCCCCc3nnc(COc4ccc5ccccc5c4O)o3)o2)ccc2ccccc12 | 35.6 µM |  |  | > 100 µM | > 100 µM | > 100 µM | > 100 µM | > 100 µM | > 100 µM | > 100 µM |  |  |  |  |  |  |  |  | 
CCN(CCCCCCCCCCN1CC(=O)N(CCCCCCCCCCN(CC)Cc2ccccc2OC)CC1=O)Cc1ccccc1OC |  | 3.6 µM | 1.93 µM |  | 2.81 µM | 3.61 µM | 3.94 µM | 3.1 µM | 10.5 µM | 3.62 µM | 1.02 µM | 0.587 µM | 1.2 µM | 1.56 µM | 1.96 µM | 1.54 µM | 0.812 µM | 3.18 µM | 
COc1ccc(OC)c(NC(=O)C(=O)C(C(=O)c2ccccc2F)C2OC(=O)c3ccccc32)c1 (centres undefined) | > 100 µM | > 100 µM | > 100 µM | > 100 µM |  |  | 54.5 µM | > 100 µM | > 100 µM | > 100 µM |  |  |  |  |  |  |  |  | 
CC(C)(C)c1cc(/C=C2/NC(=O)NC2=O)cc(C(C)(C)C)c1O | 30.4 µM | 25.9 µM | 32.9 µM |  | 29.9 µM | 26.2 µM | 33 µM | 31.9 µM |  | 29.1 µM |  |  |  |  |  |  |  |  | 
CCOC(=O)Cn1nnc2cc(Nc3c(C)[n+]([O-])c4cc(F)c(OCC)cc4[n+]3[O-])ccc21 | > 100 µM | > 100 µM | > 100 µM | > 100 µM | > 100 µM | > 100 µM | > 100 µM | > 100 µM |  | > 100 µM |  |  |  |  |  |  |  |  | 
CCC(=O)Nc1ccc(NS(=O)(=O)c2ccc(Cl)cc2)cc1 | > 100 µM | > 100 µM | > 100 µM | > 100 µM | > 100 µM |  | > 100 µM | 54.3 µM | > 100 µM | > 100 µM |  |  |  |  |  |  |  |  | 
Cc1cnc2[nH]c(-c3cccc(F)c3)cc(=O)c2c1 |  | 0.0628 µM | > 100 µM |  |  | 0.614 µM | 4.43 µM | > 43 µM |  |  |  |  |  |  |  |  |  |  | 
CN(C)CCNc1c([N+](=O)[O-])sc2ccc(Cl)cc12 |  | > 100 µM | > 100 µM | > 100 µM | > 100 µM | > 100 µM | 66 µM | > 100 µM | > 100 µM | > 100 µM |  |  |  |  |  |  |  |  | 
CCN1CCN(Cc2ccc(NC(=O)Nc3ccc(-n4ccc5c(NC(=O)c6ccccc6)nccc54)cc3)cc2C(F)(F)F)CC1 |  | 7.91 µM |  | 2.39 µM | 2.08 µM |  | 4.84 µM | > 100 µM |  | 1.45 µM | 1.71 µM |  | 0.756 µM |  | 1.54 µM | 0.0811 µM | 0.942 µM |  | 1.12 µM
CC1CCc2sc3nc4n(c(=O)c3c2C1)CC(C)S4 (centres undefined) | 67.7 µM |  | 39.8 µM | 51.8 µM | 52.5 µM | 52.3 µM | 63.8 µM | > 100 µM | 88.6 µM | 65.2 µM |  |  |  |  |  |  |  |  | 
O=C1N/N=C\c2ccc(cc2)OCc2cccc(n2)COc2ccc(cc2)/C=N\NC1=O | > 25 µM | > 25 µM |  | > 25 µM | > 25 µM | > 25 µM | > 25 µM | > 25 µM | > 25 µM | > 25 µM |  |  |  |  |  |  |  |  | 

— PubChem BioAssay (NCI)
